These results are taken from article PMC11233931, “Remodeling tumor‐associated macrophage for anti‐cancer effects by rational design of irreversible inhibition of mitogen‐activated protein kinase‐activated protein kinase 2” (MedComm, 2024).

Each structure is given as a SMILES string.

Holding throughout (assay): Eurofins kinase selectivity profile against 380 other human recombinant kinases (Table S2)
Common to all, as to format: biochemical

In assay [1] the target is T1, 380 human recombinant protein kinases (Homo sapiens, UniProt O75385).
T1 construct: purchased Eurofins (Celle Lévescault)
T1 sequence (O75385 1-1050): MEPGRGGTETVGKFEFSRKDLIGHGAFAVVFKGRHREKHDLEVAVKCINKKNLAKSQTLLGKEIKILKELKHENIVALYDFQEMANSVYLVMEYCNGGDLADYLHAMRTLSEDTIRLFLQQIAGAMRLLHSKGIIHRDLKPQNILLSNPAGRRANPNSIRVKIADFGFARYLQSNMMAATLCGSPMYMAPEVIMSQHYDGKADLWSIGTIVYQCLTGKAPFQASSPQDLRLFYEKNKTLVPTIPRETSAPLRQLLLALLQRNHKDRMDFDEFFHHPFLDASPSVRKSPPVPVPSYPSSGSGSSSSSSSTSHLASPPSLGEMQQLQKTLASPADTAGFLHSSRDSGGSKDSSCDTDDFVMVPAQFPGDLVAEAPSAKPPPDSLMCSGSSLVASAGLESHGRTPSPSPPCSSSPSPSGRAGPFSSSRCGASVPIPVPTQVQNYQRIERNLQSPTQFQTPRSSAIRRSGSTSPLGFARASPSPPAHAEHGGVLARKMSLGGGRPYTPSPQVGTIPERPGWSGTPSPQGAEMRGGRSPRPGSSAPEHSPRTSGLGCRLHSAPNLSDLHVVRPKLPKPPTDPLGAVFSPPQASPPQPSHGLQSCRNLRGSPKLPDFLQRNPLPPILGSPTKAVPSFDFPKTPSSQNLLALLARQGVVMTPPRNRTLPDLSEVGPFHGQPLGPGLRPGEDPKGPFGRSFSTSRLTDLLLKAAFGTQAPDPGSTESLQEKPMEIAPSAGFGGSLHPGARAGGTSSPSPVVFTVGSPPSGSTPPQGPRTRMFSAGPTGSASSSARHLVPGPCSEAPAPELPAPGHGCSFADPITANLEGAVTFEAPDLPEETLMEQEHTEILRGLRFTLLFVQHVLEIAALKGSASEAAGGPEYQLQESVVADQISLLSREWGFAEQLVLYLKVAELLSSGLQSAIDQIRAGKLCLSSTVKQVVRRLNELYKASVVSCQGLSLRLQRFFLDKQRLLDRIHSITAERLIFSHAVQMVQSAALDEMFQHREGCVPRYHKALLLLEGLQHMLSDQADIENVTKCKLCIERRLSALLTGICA
Conditions: ULK1(h), read-out: Inhibition rate (%). The method, boiled down:
(§1)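 Selectivity panel of 380 human recombinant protein kinases, screened by Eurofins at a range of concentrations.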

The target in assay [2] is T2, 380 human recombinant protein kinases (Homo sapiens, UniProt P49761).
T2 construct: purchased Eurofins (Celle Lévescault)
Conditions: CLK3(h), read-out: Inhibition rate. The method, boiled down:
as §1

Assay [3] has as its target T3, 380 human recombinant protein kinases (Homo sapiens, UniProt Q16620).
T3 construct: purchased Eurofins (Celle Lévescault)
The note with it: TrkB(h), read-out: Inhibition rate (%). The method, boiled down: as §1

For assay [4], the target named is T4, 380 human recombinant protein kinases (Homo sapiens, UniProt Q9UPZ9).
T4 construct: purchased Eurofins (Celle Lévescault)
T4 sequence (Q9UPZ9 1-632): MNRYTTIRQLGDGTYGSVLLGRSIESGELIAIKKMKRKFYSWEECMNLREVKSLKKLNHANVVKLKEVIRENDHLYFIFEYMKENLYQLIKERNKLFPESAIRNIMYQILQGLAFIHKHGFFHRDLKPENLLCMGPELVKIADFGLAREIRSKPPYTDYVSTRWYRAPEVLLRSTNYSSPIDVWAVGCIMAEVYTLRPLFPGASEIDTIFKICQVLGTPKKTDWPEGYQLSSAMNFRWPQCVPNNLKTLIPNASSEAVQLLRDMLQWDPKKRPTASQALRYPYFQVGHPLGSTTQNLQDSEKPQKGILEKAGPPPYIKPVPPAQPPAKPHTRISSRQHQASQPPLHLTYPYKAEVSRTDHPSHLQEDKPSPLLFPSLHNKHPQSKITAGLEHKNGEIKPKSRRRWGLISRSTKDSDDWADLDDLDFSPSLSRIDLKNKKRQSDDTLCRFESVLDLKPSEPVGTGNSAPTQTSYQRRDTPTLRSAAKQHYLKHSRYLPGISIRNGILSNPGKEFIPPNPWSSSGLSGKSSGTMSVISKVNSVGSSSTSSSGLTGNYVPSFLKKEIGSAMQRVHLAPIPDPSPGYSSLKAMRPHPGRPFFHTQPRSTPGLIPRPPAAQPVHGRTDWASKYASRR
Conditions: ICK(h), read-out: Inhibition rate. The method, boiled down:
as §1

T3 sequence (Q16620 32-822): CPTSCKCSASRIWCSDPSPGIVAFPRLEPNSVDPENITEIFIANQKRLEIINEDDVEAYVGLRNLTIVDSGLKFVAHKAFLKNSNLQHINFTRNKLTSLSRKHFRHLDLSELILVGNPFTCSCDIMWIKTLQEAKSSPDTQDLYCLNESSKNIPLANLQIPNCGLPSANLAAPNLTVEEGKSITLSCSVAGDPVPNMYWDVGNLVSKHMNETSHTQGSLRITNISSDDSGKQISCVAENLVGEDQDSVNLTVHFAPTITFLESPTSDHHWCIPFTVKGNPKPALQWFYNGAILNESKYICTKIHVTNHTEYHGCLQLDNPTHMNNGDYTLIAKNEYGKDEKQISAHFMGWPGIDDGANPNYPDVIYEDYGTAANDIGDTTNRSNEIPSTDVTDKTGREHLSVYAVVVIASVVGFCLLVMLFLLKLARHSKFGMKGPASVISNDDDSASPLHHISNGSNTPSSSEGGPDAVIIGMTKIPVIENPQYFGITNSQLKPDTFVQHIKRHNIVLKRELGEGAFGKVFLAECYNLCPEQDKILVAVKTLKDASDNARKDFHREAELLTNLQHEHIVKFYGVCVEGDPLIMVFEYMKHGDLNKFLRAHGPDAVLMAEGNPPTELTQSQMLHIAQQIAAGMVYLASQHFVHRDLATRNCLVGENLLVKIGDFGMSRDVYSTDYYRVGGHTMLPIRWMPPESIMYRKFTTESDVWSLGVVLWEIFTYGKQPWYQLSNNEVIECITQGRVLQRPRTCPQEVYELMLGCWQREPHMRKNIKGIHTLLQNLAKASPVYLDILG
T2 sequence (P49761 whole entry): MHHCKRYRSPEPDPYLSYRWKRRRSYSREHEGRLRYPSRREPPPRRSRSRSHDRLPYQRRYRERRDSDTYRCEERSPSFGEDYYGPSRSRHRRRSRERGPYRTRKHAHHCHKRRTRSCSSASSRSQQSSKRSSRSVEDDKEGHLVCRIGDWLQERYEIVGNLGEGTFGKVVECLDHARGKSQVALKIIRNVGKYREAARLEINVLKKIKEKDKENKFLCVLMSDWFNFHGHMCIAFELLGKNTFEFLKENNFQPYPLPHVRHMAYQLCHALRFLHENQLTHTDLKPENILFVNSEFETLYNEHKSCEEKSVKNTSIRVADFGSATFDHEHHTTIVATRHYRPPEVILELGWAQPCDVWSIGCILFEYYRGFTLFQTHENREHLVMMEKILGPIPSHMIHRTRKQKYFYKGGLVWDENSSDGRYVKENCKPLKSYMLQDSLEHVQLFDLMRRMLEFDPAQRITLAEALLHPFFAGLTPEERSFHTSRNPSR

Usually inhibition stands for the relative decrease from the control value, in per cent. As to `C=CC(=O)Nc1cc(-c2cc(-c3cc4c([nH]3)CCNC4=O)ccn2)ccc1OC(F)(F)F` [compound 11], the inhibition at 0.01 µM in assay [1] (10 nM) is 6%; in assay [2] (10 nM), -3%; in assay [3] (10 nM) it was -6%; in assay [4] (10 nM), 3%. In addition, the inhibition at 0.1 µM was -8% in assay [1] (100 nM), 3% in assay [2] (100 nM), -9% in assay [3] (100 nM) and 18% in assay [4] (100 nM). Further, the inhibition at 1 µM in assay [1] (1000 nM) was -3%; in assay [2] (1000 nM), 10%; in assay [3] (1000 nM), -20%; in assay [4] (1000 nM), 8%.
